Five compounds from ChEMBL document CHEMBL3739388, “Attenuation of TNF-α secretion by L-proline-based cyclic dipeptides produced by culture broth of Pseudomonas aeruginosa” (Bioorg Med Chem Lett, 2015) can be followed below.

A short description of data set [1]: Cytotoxicity against mouse RAW264.7 cells assessed as decrease in cell viability pretreated at 50 uM for 1 hr followed by addition of LPS incubated for 24 hrs by MTT assay. Type of data set: cell-based. The following applies: read-out: INH. Background: Tetrazolium dyes change colour on reduction, which living cells bring about.
In data set [2] the test system is RAW264.7. Briefly: Inhibition of LPS-induced TNF-alpha mRNA level in mouse RAW264.7 cells in presence of 1 ug/ml LPS for 6 hrs by qRT-PCR analysis. Type of data set: functional, cell-based. (In general: Real-time PCR tracks product formation cycle by cycle.)
Data set [3] deals with RAW264.7. Briefly: Inhibition of LPS-induced TNF-alpha production in mouse RAW264.7 cells pretreated with compound for 1 hr followed by addition of 1 ug/ml LPS for 6 hrs by ELISA. Type of data set: functional, cell-based. For orientation: In an ELISA, binding on a coated surface is turned into a signal by an enzyme label.
For data set [4], the system named is RAW264.7. The data set can be described thus: Inhibition of LPS-induced IL-1beta mRNA level in mouse RAW264.7 cells in presence of 1 ug/ml LPS for 6 hrs by qRT-PCR analysis. Format: functional, cell-based.
Data set [5] concerns RAW264.7. The data set can be described thus: Inhibition of LPS-induced IL-6 mRNA level in mouse RAW264.7 cells in presence of 1 ug/ml LPS for 6 hrs by qRT-PCR analysis. Type of data set: functional, cell-based.
In data set [6] the test system is RAW264.7. The data set can be described thus: Toxicity in mouse RAW264.7 cells assessed as effect on TNF-alpha mRNA level by qRT-PCR analysis. Format: cell-based.
Data set [7] relates to RAW264.7. Briefly: Toxicity in mouse RAW264.7 cells assessed as effect on NO production by Griess method. Format: cell-based.
The subject of data set [8] is RAW264.7. The data set can be described thus: Inhibition of LPS-induced NO production in mouse RAW264.7 cells at 100 ug/ml cotreated with 1 ug/ml LPS for 16 hrs by Griess reagent method. Type of data set: functional.
In data set [9] the test system is RAW264.7. Briefly: Inhibition of LPS-induced TNF-alpha production in mouse RAW264.7 cells pretreated with compound at 10 uM for 1 hr followed by addition of 1 ug/ml LPS for 6 hrs by ELISA. Type of data set: functional.
The test system of data set [10] is RAW264.7. Briefly: Inhibition of LPS-induced TNF-alpha production in mouse RAW264.7 cells pretreated with compound at 100 uM for 1 hr followed by addition of 1 ug/ml LPS for 6 hrs by ELISA. Type of data set: functional.
Another data set has as its system Rattus norvegicus. The data set can be described thus: Inhibition of LPS-induced TNF-alpha production in albino Wistar rat plasma pretreated with compound at 50 mg/kg, po followed by administration of 0.3 mg/kg, ip LPS measured after 90 mins by ELISA. Type of data set: functional.

In brackets after ≈: the same amount, converted by molar mass.

A word on the IC50: it is the concentration that gives 50% inhibition.

In the case of `O=C1N[C@@H](Cc2ccccc2)C(=O)N2C[C@H](O)C[C@@H]12`, the cytotoxicity at 24 h, 50 µM in data set [1] was found to be 3%. The inhibition result with RAW264.7 [2], in the data set with RAW264.7 [4] and with RAW264.7 [5] was “Dose-dependent effect” each time. Also, the IC50 in the data set with RAW264.7 [3] is 14.2 µg/mL (≈ 54.6 µM). The Activity entry in the data set with RAW264.7 [6] and in the data set with RAW264.7 [7] was “Non-toxic” each time. The “inhibition (INH)” value in the data set on RAW264.7 [8] was 43.5%.

`C[C@]12C=CC(=O)C=C1CC[C@@H]1[C@@H]2[C@@H](O)C[C@@]2(C)[C@H]1CC[C@]2(O)C(=O)CO` [PREDNISOLONE]: the “inhibition (INH)” value in the data set with RAW264.7 [9] is given as 42.8%.

For the compound `O=C1N[C@@H](Cc2ccccc2)C(=O)N2CCC[C@@H]12`, in data set [1], the cytotoxicity at 24 h, 50 µM worked out at 3%. Moreover, the “inhibition (INH)” value with RAW264.7 [10] is on record as 45%. For the same compound, the inhibition result with RAW264.7 [2], in the data set on RAW264.7 [4] and with RAW264.7 [5] was “Dose-dependent effect” in each case. Besides, the Activity result with RAW264.7 [6] and in the data set on RAW264.7 [7] was “Non-toxic” throughout.

For the compound `O=C1NCC(=O)N2CCC[C@@H]12` [CYCLO(PROLYLGLYCYL)], the cytotoxicity at 24 h, 50 µM in [1] is 3%. The inhibition entry with RAW264.7 [2], with RAW264.7 [4] and in the data set on RAW264.7 [5] was “Dose-dependent effect” in each case. Moreover, the IC50 in the data set with RAW264.7 [3] stood at 4.5 µg/mL (≈ 29.2 µM). The Activity entry with RAW264.7 [6] and in the data set with RAW264.7 [7] was “Non-toxic” each time. Also, the “inhibition (INH)” value in the data set on RAW264.7 [8] was determined as 39.7%.

Regarding `CC(C)C[C@@H]1NC(=O)[C@@H]2C[C@@H](O)CN2C1=O`, the cytotoxicity at 24 h, 50 µM in data set [1] is 3%. Moreover, the “inhibition (INH)” value is 49.3% with RAW264.7 [10] and 51% with Rattus norvegicus. The inhibition entry with RAW264.7 [2], with RAW264.7 [4] and in the data set with RAW264.7 [5] was “Dose-dependent effect” throughout. Also, the Activity entry in the data set with RAW264.7 [6] and in the data set with RAW264.7 [7] was “Non-toxic” throughout.
